Assay results reported in patent US9351971B2, “Substituted 2,2′-biphenazines for treating diseases” (Eutropics Pharmaceuticals, Inc., priority 2010, dated 2016).
Where “and” joins values, the source holds several entries; their conditions need not be identical. Equal entries are not always repeated. Entries after “also recorded” stand apart in the source; their conditions may differ. Where two headings read alike, the source gives them in different places.

Assays:
Mcl-1 = target: T1, Mcl-1 (Homo sapiens, UniProt Q07820); assay: Fluorescence polarization assay, Bim BH3 peptide binding to GST-Mcl-1
T1 construct: made in house; host or cells: E. coli
Description: (§1) A nineteen amino acid peptide, corresponding to the BH3 domain of Bim, with the sequence FITC-GGGIAQELRRIGDEFNAY (SEQ ID NO: 1) was labeled with the tluorophore FITC according to the manufacturer's instructions (Molecular Probes, Eugene, Oreg.). This sequence was identified as being able to bind to purified Bcl-xL protein (Sattler et al. (1997) Science 275(5302): 983-86) and to have biological activity in cells (Holinger et al. J. Biol. Chem. 274; 13298-1330).
(§2) In addition, recombinant GST -Mcl-1 and GST-Bcl-xL fusion proteins were generated in E.coli and purified using glutathione-sepharose beads using conventional techniques known to those skilled in the fields of biochemistry and molecular biology, (methods for preparation are described in Strategies for Protein Purification and Characterization, Marshak, D, Kadonga, J, Burgess R, Knuth, M, Brennan, W, Sue-Hwa, L, CSH press, Cold Spring Harbor, N.Y.). Binding of the recombinant proteins to the fluorescent Bim BH3 domain was confirmed by titration of increasing concentrations of the recombinant proteins against a constant amount of labeled Bim peptide (16.65 nM). Quantitation of binding was accomplished by FP assay with mP measurements made on the Analyst-GT reader (Molecular Devices, Sunnyvale, Calif.).
Further, the ability of compound A to disrupt the interaction between the fluorescent Bim BH3 peptide and the two fusion proteins was assessed using a fluorescence polarization assay. The Bim peptide (in solution at 4 nano-Molar) and either GST-Mcl-1 (in solution at 12.5 nM) or GST-Bcl-xL (in solution at 11.8 nM) were first combined together in phosphate buttered saline buffer, and then the compound solution in DMSO was added to final concentrations ranging from 10 μM to 0.1 nM). Normally the unbound Bim polypeptide results in polarization of 5 mP units. Upon binding of the GST-Bcl-xL and GST-Mcl-1 fusion protein, polarization increased to 100 mP units.
(§3) Experiments are performed using the fluorescence polarization assay as described in Example 2. Either Bcl-xL or Mcl-1 fusion proteins were titrated and maximum mp shift indicate binding concentrations for drug titration studies, as described in Example 2. Compound II-19, was titrated from 10 μM to 0.1 nM in 2 fold serial dilution into the peptide/protein solution. The IC50 for blocking each BH3 peptide from Mcl-1 are assessed using FP, as described in Example 2.
as §3, with “Either GST-Bcl-xL” for “Either Bcl-xL”, “or GST-Mcl-1” for “or Mcl-1”, “Compound II-20,” for “Compound II-19,”, “in 2-fold” for “in 2 fold”

NCI H929 tumors = assay: NCI H929 human myeloma xenograft model in mice; assay type: in vivo, mouse; details: bortezomib 1 mg/kg i.p. once every 3 days for 15 days; vehicle 2300 mm^3
Protocol: Cell Culture: Tumor cell line NCI H929 was cultured according to ATCC recommendations in […] containing 10% fetal bovine serum and pen-strep. On the day of implantation, cells were washed 1× with phosphate buffered saline (PBS) and harvested via centrifugation. Cells were pelleted (5 min at 1000 rpm, RT) then resuspended in serum-free matrigel and kept on ice until implantation.
Tumor Cell Implantation: The cell line was implanted via subcutaneous injection on the right rear flank at a volume of 200 μl containing 3×10^7 cells per mouse; the injection site was cleaned using alcohol before and after injection to prevent any infection.
Tumor Assessment: Beginning 1 week post cell implantation all animals were weighed and tagged and tumors were measured and body weights taken 3 times weekly (length×width×height) on Monday, Wednesday, and Friday for the duration of study. Once an average tumor volume of 100-200 mm^3 was reached, animals were randomized and placed into 4 treatment groups of a minimum of 10 mice per group based on tumor size. Randomization was determined by tumor volume (length×width×height)[…] for all of the mice and average volume was calculated using a average function in Excel (Microsoft Professional).
Treatment: The study involved 4 groups of 10 animals per group. Animals in all dose groups were weighed on days of tumor measurement. All doses were administered i.p. at 10 mL/kg. The Bortezormib (1 mg/kg) group was once every 3 days for 15 days. The mice receiving vehicle and compound II-19 were dosed every second day. Compound II-19 was formulated in 1% DMSO, 10 mM Tris pH 8, 30% hydroxypropyl-beta-cyclodextrin; this vehicle was used as the “vehicle” control. Bortezomib was formulated in 30% propylene glycol, 5% Tween 80, 3.3% dextrose in water, pH 4, 1% DMSO.

[1] = tested on: SUDHL-6 lymphoid cell line; assay: Cell viability MTS assay, SUDHL-6; assay type: cell-based; details: Homo sapiens, SU-DHL-6, 48 hours
Protocol: (§4) The lymphoid derived cell lines DHL-6 and DHL-10 were obtained from Anthony Letai of the Dana Father Cancer Research Institute, Boston, Mass. The […] derived cell line NCP-H929 was obtained irons, the NIH/NCI cell repository. AML-3 cells were obtained from Dr. Michael Andreef (MD Anderson Cancer Center, Houston, Tex.). Cells were grown in RPMI 1640 medium (GIBCO-BRL) supplemented with Pen-strep-glutamine (Gibco 10378) and 5% fetal bovine serum.
(§5) Cells were expanded in tissue culture in appropriate media and then subcultured into 96-well plates at a seeding density of 20,000-40,000 cells per well, and cells were treated with one or more compounds that were titrated info appropriate medium with FCS. Cell lines were treated with compound A at concentrations ranging from 25 μM to 25 nM. The BH3-mimetic obatoclax (Nguyen M et al. (2007), Proc. Natl. Acad. Sci. USA 104:19512-19517) was also tested against the SUDHL-6, SUDHL-10, and NCI-H929 cell lines. Cells were treated for 48 hours and scored for viability using the MTS assay (Promega). Growth inhibition was indicated as a percentage of control cell growth. Growth was determined by measuring the A570 (control cells)—A570 (treated cells)/A570 (control cells). EC50 values were calculated using Graphpad Prizm software.

Bcl-xL = target: T2, Bcl-xL (Homo sapiens, UniProt Q07817); assay: Fluorescence polarization assay, Bim BH3 peptide binding to GST-Bcl-xL; details: Bim-BH3-FITC peptide, read-out: IC50, inhibition of Bim-BH3 peptide binding to Bcl-xL
T2 construct: made in house; host or cells: E. coli
Description: as §1, §2
Further, the ability of compound A to disrupt the interaction between the fluorescent Bim BH3 peptide and the two fusion proteins was assessed using a fluorescence polarization assay. […]
(§6) Experiments are performed using the fluorescence polarization assay as described in Example 2. […] The IC50 for blocking each BH3 peptide from Mcl-1 are assessed using FP, as described in Example 2.
as §6

SUDHL-10 cell line = assay: Cell viability MTS assay, SUDHL-10 (Bax/Bak deficient); assay type: cell-based, human; details: Homo sapiens, SU-DHL10, 48 hours, MTS assay, Bax/Bak deficient cell line
Protocol: as §4, §5

[2] = tested on: NCI-H929 multiple myeloma cell line; assay: Cell viability MTS assay, NCI-H929; assay type: cell-based; details: Homo sapiens, 48 hours
Protocol: as §4, §5

CCRF-CEM cells = assay: CCRF-CEM leukemia xenograft study in SCID mice; assay type: in vivo, mouse; details: 60 mg/kg I.P. 5x/week
Protocol: The T Lymphoblastic Leukemic Cell Line CCRF-CEM was purchased from American Type Culture Consortium (ATCC). These cells were maintained in RPMI-1640 medium supplemented with 10% of fetal bovine serum, 2 mM glutamine, and 1 mM sodium pyruvate. The cells were cultured at 37° C. in 95% air/5% CO2 and 100% humidity. Medium in the culture was changed every 48 h and cells were passaged weekly.
For cell implantation to mice, cells were harvested by centrlfugation. Cell pellets were resuspended in PBS and counted using a hemacytometer and Trypan Blue dye to measure the number of viable cells in the suspension. The harvested cells were washed once with PBS and resuspended in serum-free medium at a density of 1×10^7 cells/100 μl.
For this xenograft study, animals were divided into 4 groups of 10 mice each. Groups were treated with test compounds by IP Injection at 60 mg/kg with or vehicle control.
Mice were inoculated with the CCRF-CEM cells (10,000,000 cells) were by tail vein injection. The cell suspensions had the tendency to form clumps. Therefore, during cell inoculation, the cell suspensions had to be mixed well before drawing into the syringe. Gauge 28 needles were used for the injection.
Test articles were dissolved in a mixture of DMSO/Cremophor/water (10:18:72) and administered to the animals in 100 μl aliquots 5× per week beginning 7 days after cells were transplanted into mice. Control dosage was performed under the same schedule.
Throughout the entire study, clinical observations were conducted daily for signs of leukemia development, including lethargy, ruffled fur, lack of responsiveness to stimuli, weight loss, and becoming moribund. On Day 21 after cell inoculation, blood samples were drawn from all groups. The white blood cells of all the blood samples were measured with a Nucleo Counter (ChemMetec, Denmark). […]
After 14 days of treatment, blood samples were taken from all the mice via orbital bleeding while mice were anesthetized using isoflurane inhalation. […] The number of white blood cells was then counted by standard methods.

Microsome stability = assay type: in vitro ADME
[3] = Pharmacokinetics of compound A in the mouse; assay type: in vivo; details: for plasma clearance: i.p.; for half-life: plasma, ip
Protocol: Pharmacokinetic studies were conducted on compound A to assess plasma clearance and distribution in the mouse. Compound A was administered i.p. (as in the xenograft study) at 10 mg/kg.
Pharmacokinetic studies were conducted on compound A to assess plasma clearance and distribution in the mouse. Compounds were administered i.p. (as in the xenograft study) at 19 mg/kg.

[4] = Dose escalation study in SCID mice; assay type: in vivo; details: 60 mg/kg
Protocol: Compound A was tested in SCID mice at SRI International, Menlo Park, Calif. A dose escalation study determined that that the high dose of 60 mg/kg was well-tolerated and could be safely used for the xenograft study for all 3 test articles.

[5] = fluorescent polarisation assay of Examples 2 and 3, read-out: IC50, inhibition of MCL1
[6] = fluorescence polarization, Bim-BH3-FITC peptide, GST-Mcl-1, read-out: IC50, inhibition of Bim-BH3 peptide binding to Mcl-1

T1 sequence (Q07820 whole entry): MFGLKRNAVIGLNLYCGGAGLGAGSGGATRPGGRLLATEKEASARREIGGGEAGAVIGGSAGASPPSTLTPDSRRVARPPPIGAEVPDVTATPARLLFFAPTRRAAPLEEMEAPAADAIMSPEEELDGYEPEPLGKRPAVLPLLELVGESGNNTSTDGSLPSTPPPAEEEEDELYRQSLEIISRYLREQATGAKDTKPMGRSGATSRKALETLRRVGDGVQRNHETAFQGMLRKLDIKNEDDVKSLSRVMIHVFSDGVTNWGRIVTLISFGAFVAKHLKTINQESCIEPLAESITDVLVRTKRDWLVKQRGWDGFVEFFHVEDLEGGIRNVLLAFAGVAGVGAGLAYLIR
T2 sequence (Q07817 whole entry): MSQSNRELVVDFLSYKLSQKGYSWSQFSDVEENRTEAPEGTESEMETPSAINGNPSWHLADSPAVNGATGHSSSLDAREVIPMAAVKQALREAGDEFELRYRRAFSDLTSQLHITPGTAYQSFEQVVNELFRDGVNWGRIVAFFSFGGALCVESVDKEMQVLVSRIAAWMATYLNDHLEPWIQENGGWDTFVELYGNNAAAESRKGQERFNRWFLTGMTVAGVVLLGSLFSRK

O=C(O)c1ccccc1Nc1ccc(-c2ccc(Nc3ccccc3C(=O)O)c(O)c2)cc1O [Ic-6, 2,2′-((3,3′-dihydroxy-[1,1′-biphenyl]-4,4′-diyl)bis(azanediyl))dibenzoic acid]
IC50 (Mcl-1; [5]): < 50000 nM

COc1cc(-c2ccc(Nc3cccc(C(=O)O)c3)c(OC)c2)ccc1Nc1cccc(C(=O)O)c1 [Ic-1, 3,3′-((3,3′-dimethoxy-[1,1′-bipenyl]-4,4′-diyl)bis(azanediyl))dibenzoic acid]
IC50 (Mcl-1; [5]): < 50000 nM

COc1ccc(C(=O)O)c(Nc2ccc(-c3ccc(Nc4cc(OC)ccc4C(=O)O)c(OC)c3)cc2OC)c1 [Ic-18, 2,2′-((3,3′-dimethoxy-[1,1′-biphenyl]-4,4′-diyl)bis(azanediyl))bis(4-methoxybenzoic acid)]
IC50 (Mcl-1; [5]): < 50000 nM

COc1cc(-c2ccc(Nc3cnccc3C(=O)O)c(OC)c2)ccc1Nc1ccccc1C(=O)O [Ic-8]
IC50 (Mcl-1; [5]): < 50000 nM

COc1cc(-c2ccc(Nc3ccc(C)cc3C(=O)O)c(OC)c2)ccc1Nc1ccccc1C(=O)O [Ic-7, 2-((4′-((2-carboxyphenyl)amino)-3,3′-dimethoxy-[1,1′-biphenyl]-4-Yl)amino)-5-methylbenzoic acid]
IC50 (Mcl-1; [5]): < 50000 nM

CC(C)C[C@H](NC(=O)[C@H](Cc1ccccc1)NC(=O)c1cnccn1)B(O)O [bortezomib, reference compound]
average tumor volume at the end of the study (NCI H929 tumors): 1180 mm^3

COC(=O)c1ccc(O)c2nc3c(CO)c(O)c(-c4c(O)c(CO)c5nc6c(O)ccc(C(=O)OC)c6nc5c4O)c(O)c3nc12 [II-20, dimethyl 1,1′,3,3′,6,6′-hexahydroxy-4,4′-bis(hydroxymethyl)-[2,2′-biphenazine]-9,9′-dicarboxylate]
EC50 ([1]; read-out: EC50, cell killing in SUDHL-6): 9700 nM
IC50 (Bcl-xL): 122 nM
IC50 (Mcl-1; [6]): 27 nM
preference for inhibition of Mcl-1 vs. Bcl-xL (Mcl-1; ratio of FP IC50 values): ~5 fold
EC50 (SUDHL-10 cell line; read-out: EC50, cell killing in SUDHL-10): > 25000 nM

COc1cc(-c2ccc(Nc3ccc(C)cc3C(=O)O)c(OC)c2)ccc1Nc1ccc(C)cc1C(=O)O [Ic-17, 6,6′-((3,3′-dimethoxy-[1,1′-biphenyl]-4,4′-diyl)bis(azanediyl))bis(3-methylbenzoic acid)]
IC50 (Mcl-1; [5]): < 50000 nM

COC1=CC(c2cc3ccccc3[nH]2)=N/C1=C\c1[nH]c(C)cc1C [obatoclax, reference compound]
EC50 ([1]; read-out: EC50 in SUDHL-6 (obatoclax)): 2500 nM
EC50 ([2]; read-out: EC50 in NCI-H929 (obatoclax)): 1800 nM
EC50 (SUDHL-10 cell line; read-out: EC50 in SUDHL-10 (obatoclax)): 800 nM

COc1cc(-c2ccc(Nc3ccccc3C(=O)O)c(OC)c2)ccc1Nc1ccccc1C(=O)O [Compound A, redoxal]
survival outcome vs vehicle control (CCRF-CEM cells): statistically significant; also recorded: significantly improved
white blood cells vs vehicle control (CCRF-CEM cells; after 14 days of treatment (Day 21), P<0.02 Students' t test): significantly reduced
mice still alive on Day 31 (CCRF-CEM cells; all vehicle mice died by Day 31): 60%
IC50 (Bcl-xL): > 16000 nM
microsome stability (Microsome stability): excellent
EC50 ([2]; read-out: EC50, cell killing in NCI-H929): 1000 nM
plasma clearance ([3]; 10 mg/kg): 1.3 mL/min/kg
plasma clearance ([3]; 19 mg/kg as printed): 1.3 mL/min/kg
half-life ([3]; 10 mg/kg): 2.1 h
half-life ([3]; 19 mg/kg as printed): 2.1 h
tolerability of the high dose [4]: well-tolerated
IC50 (Mcl-1; [6]): < 500 nM and 480 nM
